# Test results: US20240409594A1, “PHOTOA[…] CHANNEL MODULATOR” (INSTITUT NATIONAL DE LA SANTÉ ET DE LA RECHERCHE MÉDICALE, priority 2021, published 2024)
# What was measured:
# hNaV1.6 = target: T1, hNaV1.6 (Homo sapiens, UniProt Q9UQD0); experiment: Automated patch-clamp and photoactivation, hNaV1.6 current in HEK293 cells; format: cell-based
# T1 construct: expressed in transfected cells
# hNaV1.2 = target: T2, hNaV1.2 (Homo sapiens, UniProt Q99250); experiment: Automated patch-clamp and photoactivation, hNaV1.2 current in HEK293 cells; format: cell-based; conditions: 1 nM, 365 nm, 45 mW/cm^2
# T2 construct: expressed in transfected cells
# zebrafish larvae = experiment: Zebrafish larvae paralysis model; format: in vivo; conditions: injected, then illumination
# hERG = hERG (Homo sapiens, UniProt Q12809); experiment: Automated patch-clamp with photocontrol, hERG current in CHO cells; conditions: 100 nM; 365 nm, 45 mW/cm^2
# [1] = target: human NaV1.2 channel (human) (UniProt Q99250); experiment: cell-based or functional assay
# [2] = target: human NaV1.1 channel (human) (UniProt P35498); experiment: cell-based or functional assay
# [3] = target: human NaV1.6 channel (human) (UniProt Q9UQD0); experiment: cell-based or functional assay
# Kv1.2/KCNA2 = Kv1.2/KCNA2 (Homo sapiens, UniProt P16389); conditions: cited from earlier work
# KCa1.1/KCNMA1 = KCa1.1/KCNMA1 (Homo sapiens, UniProt Q12791); conditions: cited from earlier work
# Kv1.5/KCNA5 = Kv1.5/KCNA5 (Homo sapiens, UniProt P22460); conditions: cited from earlier work
# shaker = shaker (Drosophila melanogaster, UniProt P08510); conditions: cited from earlier work
# Kv1.3/KCNA3 = Kv1.3/KCNA3 (Homo sapiens, UniProt P22001); conditions: cited from earlier work
# Kv1.6/KCNA6 = Kv1.6/KCNA6 (Homo sapiens, UniProt P17658); conditions: cited from earlier work
# [4] = tested on: nicotinic acetylcholine receptors (nAChR); conditions: cited from earlier work
# KV1.2 = target: T3, KV1.2 (Homo sapiens, UniProt P16389); experiment: Automated patch-clamp with photocontrol, KV1.2 current in CHO cells; format: cell-based; conditions: 100 nM; 365 nm, 45 mW/cm^2
# T3 construct: expressed in transfected cells; host or cells: CHO (transient)
# T1 sequence (Q9UQD0 whole entry): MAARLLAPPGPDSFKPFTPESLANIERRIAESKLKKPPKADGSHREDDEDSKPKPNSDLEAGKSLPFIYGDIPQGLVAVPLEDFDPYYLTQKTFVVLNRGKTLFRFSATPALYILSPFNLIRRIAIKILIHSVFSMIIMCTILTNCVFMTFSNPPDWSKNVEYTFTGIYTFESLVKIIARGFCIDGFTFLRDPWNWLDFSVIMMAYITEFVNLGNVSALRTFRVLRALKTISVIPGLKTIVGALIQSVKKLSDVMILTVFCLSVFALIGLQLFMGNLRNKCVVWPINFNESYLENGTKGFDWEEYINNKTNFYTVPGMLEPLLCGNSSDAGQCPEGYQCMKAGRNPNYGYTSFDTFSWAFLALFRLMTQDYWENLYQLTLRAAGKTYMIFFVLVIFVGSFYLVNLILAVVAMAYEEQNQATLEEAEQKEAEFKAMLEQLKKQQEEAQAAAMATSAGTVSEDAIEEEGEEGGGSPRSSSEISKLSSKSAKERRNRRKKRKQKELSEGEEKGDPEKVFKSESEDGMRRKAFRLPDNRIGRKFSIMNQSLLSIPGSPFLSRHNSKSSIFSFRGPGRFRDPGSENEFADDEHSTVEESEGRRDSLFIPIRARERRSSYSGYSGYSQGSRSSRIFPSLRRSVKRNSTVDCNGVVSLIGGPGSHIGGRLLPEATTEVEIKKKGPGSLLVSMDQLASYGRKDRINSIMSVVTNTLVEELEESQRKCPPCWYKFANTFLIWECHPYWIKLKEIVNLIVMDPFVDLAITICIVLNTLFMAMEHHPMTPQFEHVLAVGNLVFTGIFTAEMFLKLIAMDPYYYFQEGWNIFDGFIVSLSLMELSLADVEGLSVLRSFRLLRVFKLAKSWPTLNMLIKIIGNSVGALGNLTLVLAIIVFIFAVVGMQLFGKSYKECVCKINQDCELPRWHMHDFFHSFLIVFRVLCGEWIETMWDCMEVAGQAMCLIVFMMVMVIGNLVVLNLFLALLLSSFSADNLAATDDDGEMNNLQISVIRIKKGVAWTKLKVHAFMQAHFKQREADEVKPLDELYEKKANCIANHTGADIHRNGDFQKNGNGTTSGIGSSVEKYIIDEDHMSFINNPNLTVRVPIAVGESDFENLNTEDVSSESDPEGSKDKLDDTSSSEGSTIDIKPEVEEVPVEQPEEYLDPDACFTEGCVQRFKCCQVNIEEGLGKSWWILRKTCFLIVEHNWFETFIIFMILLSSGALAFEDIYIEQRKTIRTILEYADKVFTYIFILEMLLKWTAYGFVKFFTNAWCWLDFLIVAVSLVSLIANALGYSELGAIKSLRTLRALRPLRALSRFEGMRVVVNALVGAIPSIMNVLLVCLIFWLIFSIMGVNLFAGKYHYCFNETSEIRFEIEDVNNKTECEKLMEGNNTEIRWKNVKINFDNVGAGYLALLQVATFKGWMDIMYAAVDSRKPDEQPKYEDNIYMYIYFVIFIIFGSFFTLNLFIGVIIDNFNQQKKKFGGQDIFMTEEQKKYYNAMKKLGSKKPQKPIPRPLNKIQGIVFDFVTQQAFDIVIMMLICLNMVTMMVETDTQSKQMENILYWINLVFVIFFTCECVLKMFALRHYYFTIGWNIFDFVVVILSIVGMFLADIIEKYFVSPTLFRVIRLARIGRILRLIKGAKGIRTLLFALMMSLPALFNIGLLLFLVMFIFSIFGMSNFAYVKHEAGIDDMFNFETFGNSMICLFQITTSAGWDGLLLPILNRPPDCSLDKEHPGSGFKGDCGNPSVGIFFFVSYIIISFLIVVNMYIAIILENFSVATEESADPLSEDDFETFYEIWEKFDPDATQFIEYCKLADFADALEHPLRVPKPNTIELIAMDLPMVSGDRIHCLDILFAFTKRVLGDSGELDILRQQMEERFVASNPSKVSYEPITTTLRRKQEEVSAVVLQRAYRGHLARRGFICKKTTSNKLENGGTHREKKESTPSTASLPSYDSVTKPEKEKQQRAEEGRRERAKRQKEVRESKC
# T2 sequence (Q99250 whole entry): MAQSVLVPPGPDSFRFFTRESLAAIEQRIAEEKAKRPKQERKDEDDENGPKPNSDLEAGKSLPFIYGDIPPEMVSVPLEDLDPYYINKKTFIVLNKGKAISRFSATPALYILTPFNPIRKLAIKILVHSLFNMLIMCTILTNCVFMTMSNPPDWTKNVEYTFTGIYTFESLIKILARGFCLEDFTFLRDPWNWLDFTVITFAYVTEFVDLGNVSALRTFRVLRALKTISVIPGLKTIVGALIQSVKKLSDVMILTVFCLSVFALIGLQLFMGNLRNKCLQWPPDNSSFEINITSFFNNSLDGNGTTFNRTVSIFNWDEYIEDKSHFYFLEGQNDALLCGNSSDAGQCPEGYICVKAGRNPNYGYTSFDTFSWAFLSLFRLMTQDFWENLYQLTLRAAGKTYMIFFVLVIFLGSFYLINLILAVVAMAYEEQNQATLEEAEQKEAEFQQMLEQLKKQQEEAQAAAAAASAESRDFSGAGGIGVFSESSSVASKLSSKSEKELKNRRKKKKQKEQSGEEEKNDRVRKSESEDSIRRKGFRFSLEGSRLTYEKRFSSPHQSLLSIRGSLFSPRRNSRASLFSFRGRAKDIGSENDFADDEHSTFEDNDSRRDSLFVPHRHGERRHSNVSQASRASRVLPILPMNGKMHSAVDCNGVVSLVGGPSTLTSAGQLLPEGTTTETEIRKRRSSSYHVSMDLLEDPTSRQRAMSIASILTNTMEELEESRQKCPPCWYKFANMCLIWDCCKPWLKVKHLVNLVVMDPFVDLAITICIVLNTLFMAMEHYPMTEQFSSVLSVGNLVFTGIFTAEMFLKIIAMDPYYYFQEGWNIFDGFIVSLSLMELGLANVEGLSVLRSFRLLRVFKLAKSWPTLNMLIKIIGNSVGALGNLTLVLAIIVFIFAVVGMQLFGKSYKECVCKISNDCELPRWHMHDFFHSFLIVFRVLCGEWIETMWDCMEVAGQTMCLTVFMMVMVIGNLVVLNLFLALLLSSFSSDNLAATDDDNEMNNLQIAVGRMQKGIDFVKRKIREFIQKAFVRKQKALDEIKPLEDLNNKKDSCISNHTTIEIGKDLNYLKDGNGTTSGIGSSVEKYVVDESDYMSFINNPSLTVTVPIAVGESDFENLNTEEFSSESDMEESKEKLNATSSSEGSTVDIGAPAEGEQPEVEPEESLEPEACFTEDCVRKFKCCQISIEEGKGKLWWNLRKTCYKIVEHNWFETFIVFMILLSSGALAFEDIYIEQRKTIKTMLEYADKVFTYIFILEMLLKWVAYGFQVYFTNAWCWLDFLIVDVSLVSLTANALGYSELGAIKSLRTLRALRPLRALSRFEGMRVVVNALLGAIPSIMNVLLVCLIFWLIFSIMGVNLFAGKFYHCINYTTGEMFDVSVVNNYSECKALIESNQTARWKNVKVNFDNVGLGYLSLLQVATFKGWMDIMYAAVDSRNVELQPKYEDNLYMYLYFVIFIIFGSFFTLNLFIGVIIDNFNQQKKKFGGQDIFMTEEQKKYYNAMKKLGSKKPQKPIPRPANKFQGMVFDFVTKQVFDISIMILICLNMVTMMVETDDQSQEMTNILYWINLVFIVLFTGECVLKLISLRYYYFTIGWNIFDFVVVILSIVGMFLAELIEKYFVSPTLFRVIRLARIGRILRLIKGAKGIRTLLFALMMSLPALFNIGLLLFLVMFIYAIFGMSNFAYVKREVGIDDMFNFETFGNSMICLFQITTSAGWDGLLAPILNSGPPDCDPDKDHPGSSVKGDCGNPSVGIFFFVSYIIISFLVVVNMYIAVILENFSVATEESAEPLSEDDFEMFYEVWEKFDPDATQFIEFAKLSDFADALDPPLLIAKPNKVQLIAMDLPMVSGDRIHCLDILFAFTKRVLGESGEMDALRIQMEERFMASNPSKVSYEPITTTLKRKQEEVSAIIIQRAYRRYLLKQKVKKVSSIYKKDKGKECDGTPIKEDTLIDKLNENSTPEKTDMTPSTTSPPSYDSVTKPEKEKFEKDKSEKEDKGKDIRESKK
# Sequence of shaker (P08510 whole entry): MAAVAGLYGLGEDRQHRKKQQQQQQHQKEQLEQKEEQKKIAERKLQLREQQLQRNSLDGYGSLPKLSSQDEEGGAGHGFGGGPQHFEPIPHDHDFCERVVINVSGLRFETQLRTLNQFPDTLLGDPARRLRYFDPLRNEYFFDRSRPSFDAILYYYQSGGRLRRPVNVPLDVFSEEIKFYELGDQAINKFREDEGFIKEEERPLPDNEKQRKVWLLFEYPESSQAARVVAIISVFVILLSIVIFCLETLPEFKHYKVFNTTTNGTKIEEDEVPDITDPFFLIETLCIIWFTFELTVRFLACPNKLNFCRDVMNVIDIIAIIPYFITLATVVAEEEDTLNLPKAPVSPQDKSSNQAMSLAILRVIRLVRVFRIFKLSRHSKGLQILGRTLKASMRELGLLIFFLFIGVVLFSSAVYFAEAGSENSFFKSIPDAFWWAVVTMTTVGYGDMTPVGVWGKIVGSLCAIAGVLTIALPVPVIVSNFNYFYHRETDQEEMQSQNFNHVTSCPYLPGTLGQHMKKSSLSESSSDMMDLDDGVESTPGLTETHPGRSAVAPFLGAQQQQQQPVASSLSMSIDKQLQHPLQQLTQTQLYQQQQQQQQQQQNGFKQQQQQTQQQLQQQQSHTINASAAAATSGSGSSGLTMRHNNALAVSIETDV
# Sequence of Kv1.2/KCNA2 (P16389 whole entry): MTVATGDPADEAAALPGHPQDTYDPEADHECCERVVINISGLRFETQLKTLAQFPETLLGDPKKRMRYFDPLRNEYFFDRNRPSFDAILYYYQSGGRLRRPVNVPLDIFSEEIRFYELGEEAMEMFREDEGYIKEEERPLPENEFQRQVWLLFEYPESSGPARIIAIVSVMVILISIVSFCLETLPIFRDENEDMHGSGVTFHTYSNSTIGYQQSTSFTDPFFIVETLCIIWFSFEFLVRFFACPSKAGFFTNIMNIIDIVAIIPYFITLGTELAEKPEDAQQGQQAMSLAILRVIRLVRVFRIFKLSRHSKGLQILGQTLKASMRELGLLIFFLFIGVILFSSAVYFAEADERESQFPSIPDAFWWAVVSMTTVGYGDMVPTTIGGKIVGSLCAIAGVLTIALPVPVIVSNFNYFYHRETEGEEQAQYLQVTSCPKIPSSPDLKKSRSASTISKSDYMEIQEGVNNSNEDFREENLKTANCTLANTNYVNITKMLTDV
compound,measurement,setting,value
CC[C@H](C)[C@@H]1NC(=O)CNC(=O)[C@H](CC(C)C)NC(=O)[C@@H](NC(=O)CN)CSSC[C@@H]2NC(=O)[C@@H]3CSSC[C@@H](C(=O)N[C@@H](CCCCN)C(=O)N[C@@H](Cc4ccc(O)cc4)C(=O)N[C@@H](CCC(N)=O)C(=O)N[C@H](C(=O)N[C@@H](CCCCN)C(N)=O)[C@@H](C)CC)NC(=O)[C@H](Cc4c[nH]c5ccccc45)NC(=O)[C@H](CCCNC(=N)N)NC(=O)[C@H]([C@@H](C)O)NC(=O)[C@H](CCCCN)NC(=O)[C@H](CCCNC(=N)N)NC(=O)[C@H](CO)NC(=O)[C@H](CSSC[C@H](NC(=O)[C@H](C)NC(=O)[C@H](CCCCN)NC(=O)[C@H](Cc4ccccc4)NC1=O)C(=O)N[C@@H](CC(N)=O)C(=O)N1CCC[C@H]1C(=O)N[C@@H](CO)C(=O)N[C@@H](CC(N)=O)C(=O)N[C@@H](CC(=O)O)C(=O)N[C@@H](CCC(N)=O)C(=O)N3)NC(=O)[C@H](C(C)C)NC(=O)[C@H](CC(C)C)NC(=O)[C@H](CCCCN)NC(=O)[C@H](CO)NC(=O)[C@H](CO)NC(=O)[C@H](CCCCN)NC2=O [uncaged HwTxIV-Nvoc],IC50,"hNaV1.6; FIG. 2a / FIG. 3f series, caged vs non-caged vs uncaged, holding −100 mV, read-out: IC50 NaV1.6 current inhibition",15.2 nM
AaHII-R^62K-Nvoc: Nvoc-grafted analogue of AaHII wherein Arg62 was replaced by Lys62,UV-dependent effect on hNaV1.2 current after uncaging,hNaV1.2,slowing of inactivation
same,UV-dependent effect on hNaV1.2 current after uncaging,hNaV1.2; listed as AaHIIR^62K-Nvoc,activation
same,Paralysis of zebrafish larvae after illumination,zebrafish larvae,paralysis in all larvaes
BeKm1-Nvoc: BeKm1 (hERG blocker) caged with a Nvoc protecting group (RPTDIKCSESYQCFPVCKSRFGKTNGRCVNGFCDCF),Effect of Nvoc photolysis by-product on NaV1.6,"hNaV1.6; by-product from uncaging 100 nM, negative control",inert
same,UV-dependent effect on hERG current after uncaging,hERG,block
HwTxIV analog (HwTxIVG^1G^4K^36) (peptide),IC50 of hNaV1.2 current inhibition,[1],3.23 nM
same,IC50 of hNaV1.1 current inhibition,[2],3.6 nM
same,IC50 of NaV1.6 current inhibition,[3],22.4 nM
QFTNVSCTTSKECWSVCQRLHNTSRGKCMNKKCRCYS [Charybdotoxin],Inhibition of Kv1.2/KCNA2,Kv1.2/KCNA2,nanomolar range
same,IC50,KCa1.1/KCNMA1,5.9 nM
same,Kd,Kv1.5/KCNA5,> 100 nM
same,Ki,shaker,227 nM
same,Inhibition of Kv1.3/KCNA3,Kv1.3/KCNA3,nanomolar range
same,Ki,Kv1.6/KCNA6,22 nM
same,Interaction with nicotinic acetylcholine receptors,[4],weak interaction
charybdotoxin-Nvoc,UV-dependent effect on KV1.2 current after uncaging,KV1.2,block
